In US6723710B2, “Compositions for inhibiting arginase activity” (The Trustees of the University of Pennsylvania, priority 1997, dated 2004):

Experiments:
[1] = target: IAS arginase activity; assay: arginase activity in IAS homogenate; format: biochemical, opossum
Description: (§1) Tissue samples of the opossum internal anal sphincter muscle (IAS), adjoining rectal tissue, liver, and brain were homogenized using an ULTRATURRAX™ tissue homogenizer (Tekamr, Cincinnati, Ohio) in a solution comprising 10 millimolar Tris-HCl, 150 millimolar KCl, and 25 millimolar MnCl2, at pH 7.4. The homogenates were dialyzed overnight against the same solution. Dialyzed homogenates were centrifuged to remove insoluble material and concentrated with Amicon CENTRICON™ 30 microconcentrators to yield stock protein preparations having protein concentrations of 2.4 milligrams per milliliter for IAS smooth muscle, 3.6 milligrams per milliliter for rectal smooth muscle, 3 milligrams per milliliter for brain, and 17.5 milligrams per milliliter for liver. Protein concentrations were estimated with the Pierce Coomassie Protein Reagent kit using bovine serum albumin as a standard.
Arginase activity in tissue homogenates was evaluated using the radioactive L-[guanidino^14C]arginine assay of Rüegg and Russell (1980, Anal. Biochem. 102:206-212). Assays were performed using a solution comprising 100 millimolar CHES-NaOH and 0.1 millimolar MnCl2 at pH 9.0. The reactions were initiated by addition of 5 microliters of tissue homogenate to 45 microliters of reaction mixture that contained the CHES buffer, the appropriate concentration of arginine (0.5 to 5 millimolar) and about 5.0×10^4 counts per minute of L-[guanidino-^14C]arginine. IAS, rectal muscle, and brain homogenates were incubated with the assay mixture at room temperature for one hour, and the liver sample was incubated for 5 minutes. […] Urea was separated from non-reacted L-[guanidino-^14C]arginine by treatment with 200 μl of 1:1 v/v slurry of DOWEX™ 50W-X8 in water, and quantitated by adding 200 microliters of the supernatant from the DOWEX™ treatment to 3 milliliters of LIQUISCENT™ (National Diagnostics) for liquid scintillation counting in a Beckman LS 5000CE counter. The data were analyzed using double-reciprocal plots of the initial velocity measurements; standard errors were determined by regression analysis. […]

[2] = target: rectum arginase activity; assay: arginase activity in rectum homogenate; format: biochemical, opossum
Description: as §1
Arginase activity in tissue homogenates was evaluated using the radioactive L-[guanidino^14C]arginine assay of Rüegg and Russell (1980, Anal. Biochem. 102:206-212). Assays were performed using a solution comprising 100 millimolar CHES-NaOH and 0.1 millimolar MnCl2 at pH 9.0. The reactions were initiated by addition of 5 microliters of tissue homogenate to 45 microliters of reaction mixture that contained the CHES buffer, the appropriate concentration of arginine (0.5 to 5 millimolar) and about 5.0×10^4 counts per minute of L-[guanidino-^14C]arginine. IAS, rectal muscle, and brain homogenates were incubated with the assay mixture at room temperature for one hour, and the liver sample was incubated for 5 minutes. The reactions were stopped by addition of 200 microliters of a stop solution containing 0.25 molar acetic acid, 7 molar urea, and 10 millimolar […] at pH 4.5. Arginase has essentially no activity at the low pH of the stop solution. [^14C] Urea was separated from non-reacted L-[guanidino-^14C]arginine by treatment with 200 μl of 1:1 v/v slurry of DOWEX™ 50W-X8 in water, and quantitated by adding 200 microliters of the supernatant from the DOWEX™ treatment to 3 milliliters of LIQUISCENT™ (National Diagnostics) for liquid scintillation counting in a Beckman LS 5000CE counter. The data were analyzed using double-reciprocal plots of the initial velocity measurements; standard errors were determined by regression analysis.
Assays in the presence of the inhibitors N^ω-hydroxy-L-arginine (1 to 100 micromolar) and ABHA (0.05 to 100 micromolar) were performed as described above. The amino acid D-ornithine served as a control in these experiments, since this amino acid, unlike L-omithine, is not an inhibitor of arginase.

[3] = target: T1, rat liver arginase (Rattus norvegicus, UniProt P07824); assay: radioactive L-[guanidino-14C]arginine arginase assay (Example 3); format: biochemical; set-up: made in house; conditions: [14C-guanidino]-L-arginine assay, low inhibitor concentrations, assuming competitive inhibition; read-out: Ki (apparent)
T1 sequence (P07824 1-323): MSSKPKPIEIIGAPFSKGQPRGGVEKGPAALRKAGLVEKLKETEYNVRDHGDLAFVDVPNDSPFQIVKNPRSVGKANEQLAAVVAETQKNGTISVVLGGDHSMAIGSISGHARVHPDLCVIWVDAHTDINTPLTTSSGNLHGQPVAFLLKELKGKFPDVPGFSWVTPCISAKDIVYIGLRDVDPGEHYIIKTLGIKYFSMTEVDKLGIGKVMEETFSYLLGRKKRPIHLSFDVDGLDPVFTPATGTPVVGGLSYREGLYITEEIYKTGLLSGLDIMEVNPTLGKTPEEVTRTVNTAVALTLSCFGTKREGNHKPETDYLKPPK
Experimental: Assays were performed in 100 micromolar MnCl2, 100 millimolar CHES-NaOH (pH 9.0). The reactions were initiated by addition of 5 microliters of a circa 1 unit per milliliter enzyme solution to 45 microliters of reaction mixture containing CHES buffer, 1.4 millimolar L-arginine, about 5.0×10^4 counts per minute of L-[guanidino- ^14C]arginine, and variable concentrations of the appropriate inhibitor. After a 5-15 minute reaction time, 200 microliters of a stop solution containing 7 molar urea, 10 millimolar L-arginine, and 0.25 molar acetic acid (pH 4.5) was added to the reaction (arginase has essentially no activity under these conditions). [^14C]-Urea was separated from non-reacted L-[guanidino-^14 C]arginine by treatment with 200 microliters of a 1:1 (vol/vol) slurry of DOWEX™ 50 W-X8 in water, and quantitated by adding 200 microliters of the supernatant from the DOWEX™ treatment to 3 milliliters of LIQUISCINT™ (National Diagnostics) for liquid scintillation counting in a Beckman LS5000CE counter.

N[C@@H](CCCCB(O)O)C(=O)O [compound 7, 2(S)-amino-6-boronohexanoic acid]
IC50 ([1]; IAS, read-out: IC50 for inhibition of arginase activity, IAS homogenate): 100 nM | Ki ([1]; arginine fixed at Km, assuming competitive inhibition, read-out: estimated Ki, IAS arginase activity): 50 nM | Ki ([2]; arginine fixed at Km, assuming competitive inhibition, read-out: estimated Ki, rectum arginase activity): 26 nM | times more potent than L-HO-Arg, rectum ([2]; rectum homogenate): 840 times | IC50 ([2]; rectum, read-out: IC50 for inhibition of arginase activity, rectum homogenate): 50 nM | Ki [3]: 100 nM
